Measurements taken from article PMC6496074, “The Evolution of Azole Resistance in Candida albicans Sterol 14α-Demethylase (CYP51) through Incremental Amino Acid Substitutions” (Antimicrobial Agents and Chemotherapy, 2019).
≈ marks a conversion by molar mass, not a printed value. Where “and” joins values, the source holds several entries; their conditions need not be identical. Equal entries are not always repeated.

Experiments:
[1] = test system: C. albicans SC5314 strain with CaCYP51 substitution S405F; test: CLSI broth microdilution MIC; format: cell-based, Candida albicans; conditions: for MIC: Candida albicans, SC5314, RPMI 1640, 24 h, 35°C, 50% reduction in growth
Text: (§1) Strains expressing seven single mutations (Y132F, K143R, F145L, S405F, G448E, G450E, G464S) and three double mutations (Y132F+K143R, Y132F+F145L, D278N+G464S) were selected from a previous study ([36]). Two additional strains expressing the Y132H and D278N CYP51 gene mutations were created utilizing the SAT1/FLP cassette described previously ([44]). […] Successful transformants were screened on yeast-peptone-dextrose agar plates containing nourseothricin and confirmed via Southern hybridization. Genomic DNA from nourseothricin-screened transformants was digested with the HindIII restriction enzyme, and the resulting DNA digests were loaded on 1% agarose gels containing ethidium bromide. Digested samples were visualized briefly under UV light after approximately 2 h of electrophoresis (120 V) to confirm appropriate band separation. Lanes containing digested DNA in the gel were transferred onto a nitrocellulose membrane via vacuum suction, and DNA was cross-linked to the membrane through UV exposure. PCR amplification of the genomic DNA from parent isolate SC5314 using primers ERG11_Probe_F (5′-[…]-3′) and ERG11_Probe_R (5′-[…]-3′) generated a 254-bp product, used as a probe for the ERG11 gene locus. The probe was labeled and prepared using an Amersham AlkPhos direct labeling and detection system (GE Life Sciences) and hybridized to the membrane through overnight incubation at 55°C. Bands containing the hybridized, alkaline phosphatase-labeled probe corresponding to either wild-type ERG11 alleles (2,678 bp) or successfully replaced alleles with the SAT1/FLP cassette included (4,318 bp) or recycled (3,119 bp) were visualized with the CDP-Star chemiluminescent detection reagent. To confirm the sequence of the replaced ERG11 allele, a DNA fragment containing the ERG11 ORF and approximately 435 bp upstream of the start codon and 229 bp downstream of the ERG11 stop codon was PCR amplified using primers CaERG11_A_(ApaI) (5′-[…]-3′) and CaERG11_E_(XhoI) (5′-[…]-3′). The resulting DNA fragment was purified and Sanger sequenced on an ABI model 3130XL genetic analyzer with the following sequencing primers: CaERG11SeqA (5′-[…]-3′), CaERG11SeqB (5′-[…]-3′), CaERG11SeqC (5′-[…]-3′), CaERG11SeqD (5′-[…]-3′), CaERG11SeqE (5′-[…]-3′), and CaERG11SeqF (5′-[…]-3′).
(§2) Azole MICs were determined using the broth microdilution method described by the Clinical Laboratory and Standards Institute ([45], [46]). […] Measurements were read visually at 24 h after incubation at 35°C for a 50% reduction in growth from that in the drug-free control wells. MIC measurements were performed in duplicate, and the MIC was reported as the higher of two values for all strains tested. In cases where the duplicate MIC values were not identical, the higher of the two MIC values is reported. […] Additionally, no MICs differed by more than 2 dilutions for a given strain and drug.

[2] = test system: C. albicans SC5314 strain with CaCYP51 substitution G448E; test: CLSI broth microdilution MIC; format: cell-based, Candida albicans; conditions: for MIC: Candida albicans, SC5314, RPMI 1640, 24 h, 35°C, 50% reduction in growth
Text: as §1, §2

[3] = test system: C. albicans SC5314 strain with CaCYP51 substitution D278N+G464S; test: CLSI broth microdilution MIC; format: cell-based, Candida albicans; conditions: for MIC: Candida albicans, SC5314, RPMI 1640, 24 h, 35°C, 50% reduction in growth
Text: as §1, §2

[4] = test system: C. albicans SC5314 strain with CaCYP51 substitution G464S; test: CLSI broth microdilution MIC; format: cell-based; conditions: Candida albicans, RPMI 1640, 24 h, 35°C, 50% reduction in growth
Text: as §1, §2

[5] = test system: C. albicans SC5314 strain with CaCYP51 substitution Y132F+F145L; test: CLSI broth microdilution MIC; format: cell-based; conditions: Candida albicans, RPMI 1640, 24 h, 35°C, 50% reduction in growth
Text: as §1, §2

[6] = test system: C. albicans SC5314 strain with CaCYP51 substitution K143R; test: CLSI broth microdilution MIC; format: cell-based; conditions: Candida albicans, RPMI 1640, 24 h, 35°C, 50% reduction in growth
Text: as §1, §2

[7] = test system: C. albicans SC5314 strain with CaCYP51 substitution F145L; test: CLSI broth microdilution MIC; format: cell-based; conditions: Candida albicans, RPMI 1640, 24 h, 35°C, 50% reduction in growth
Text: as §1, §2

[8] = test system: C. albicans SC5314 strain with CaCYP51 substitution D278N; test: CLSI broth microdilution MIC; format: cell-based; conditions: Candida albicans, RPMI 1640, 24 h, 35°C, 50% reduction in growth
Text: as §1, §2

[9] = test system: fluconazole-susceptible parent strain SC5314; test: CLSI broth microdilution MIC; format: cell-based; conditions: Candida albicans; parent strain SC5314, no substitution; RPMI 1640, 24 h, 35°C, 50% reduction in growth
Text: as §1, §2

[10] = test system: C. albicans SC5314 strain with CaCYP51 substitution Y132F+K143R; test: CLSI broth microdilution MIC; format: cell-based; conditions: Candida albicans, RPMI 1640, 24 h, 35°C, 50% reduction in growth
Text: as §1, §2

[11] = test system: C. albicans SC5314 strain with CaCYP51 substitution Y132F; test: CLSI broth microdilution MIC; format: cell-based; conditions: Candida albicans, RPMI 1640, 24 h, 35°C, 50% reduction in growth
Text: as §1, §2

[12] = test system: C. albicans SC5314 strain with CaCYP51 substitution G450E; test: CLSI broth microdilution MIC; format: cell-based; conditions: Candida albicans, RPMI 1640, 24 h, 35°C, 50% reduction in growth
Text: as §1, §2

[13] = test system: C. albicans SC5314 strain with CaCYP51 substitution Y132H; test: CLSI broth microdilution MIC; format: cell-based; conditions: Candida albicans, RPMI 1640, 24 h, 35°C, 50% reduction in growth
Text: as §1, §2

CaCYP51 Y132F+K143R = target: T1, CaCYP51 Y132F+K143R (Candida albicans, UniProt P10613, K143R/Y132F); test: CYP51 reconstitution assay; format: biochemical; conditions: for remaining activity at 4 µM: 0.25 h, read-out: Residual CYP51 activity (%) ± SD
T1 construct: made in house; host or cells: E. coli DH5α (pCWori+)
Procedure: (§3) Azole antifungal agents were added in 2.5 μl dimethyl sulfoxide, followed by 10 min of incubation at 37°C prior to assay initiation with 4 mM β-NADPH-Na4. The samples were then shaken for 15 min at 37°C. Sterol metabolites were recovered by extraction with ethyl acetate, followed by derivatization with 0.1 ml N,O-bis(trimethylsilyl)trifluoroacetamide (BSTFA)–trimethylchlorosilane (TMCS) (99:1) and 0.3 ml anhydrous pyridine (2 h at 80°C), prior to analysis by gas chromatography-mass spectrometry (GC-MS) ([52]). IC50 determinations were performed in duplicate.

CaCYP51 Y132F+F145L = target: T2, CaCYP51 Y132F+F145L (Candida albicans, UniProt P10613, F145L/Y132F); test: CYP51 reconstitution assay; format: biochemical; conditions: for remaining activity at 4 µM: 0.25 h, read-out: Residual CYP51 activity (%) ± SD
T2 construct: made in house; host or cells: E. coli DH5α (pCWori+)
Procedure: as §3

CaCYP51 Y447H = target: T3, CaCYP51 Y447H (Candida albicans, UniProt P10613, Y447H); test: CYP51 reconstitution assay; format: biochemical; conditions: for remaining activity at 4 µM: 0.25 h, 4 μM triazole, % of activity without triazole, read-out: Residual CYP51 activity (%) ± SD; for IC50: mean ± SD, duplicate
T3 construct: made in house; host or cells: E. coli DH5α (pCWori+)
Procedure: as §3

CaCYP51 D278N+G464S = target: T4, CaCYP51 D278N+G464S (Candida albicans, UniProt P10613, D278N/G464S); test: CYP51 reconstitution assay; format: biochemical; conditions: for remaining activity at 4 µM: 0.25 h, 4 μM triazole, % of activity without triazole, read-out: Residual CYP51 activity (%) ± SD; for IC50: mean ± SD, duplicate
T4 construct: made in house; host or cells: E. coli DH5α (pCWori+)
Procedure: as §3

T1 sequence (P10613 whole entry, looked up, stated change not applied): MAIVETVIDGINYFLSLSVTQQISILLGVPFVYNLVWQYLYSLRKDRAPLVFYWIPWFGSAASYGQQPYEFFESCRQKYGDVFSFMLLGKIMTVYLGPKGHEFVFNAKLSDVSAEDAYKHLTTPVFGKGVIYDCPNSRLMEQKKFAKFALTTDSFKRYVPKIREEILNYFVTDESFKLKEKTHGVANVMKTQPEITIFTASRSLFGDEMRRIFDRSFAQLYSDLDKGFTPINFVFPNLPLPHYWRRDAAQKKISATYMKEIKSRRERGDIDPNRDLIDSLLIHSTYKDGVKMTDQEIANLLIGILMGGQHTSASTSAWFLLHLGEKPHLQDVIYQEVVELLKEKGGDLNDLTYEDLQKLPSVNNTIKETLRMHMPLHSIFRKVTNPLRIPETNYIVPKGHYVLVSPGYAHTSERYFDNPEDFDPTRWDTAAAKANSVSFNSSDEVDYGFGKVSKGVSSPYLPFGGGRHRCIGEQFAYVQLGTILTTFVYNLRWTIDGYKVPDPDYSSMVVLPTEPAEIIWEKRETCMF
T4 sequence (P10613 whole entry, looked up, stated change not applied): as above
T3 sequence (P10613 whole entry, looked up, stated change not applied): as above
T2 sequence (P10613 whole entry, looked up, stated change not applied): as above

Compound | MIC [1] | MIC [2] | MIC [3] | MIC [4] | MIC [5] | MIC [6] | MIC [7] | MIC [8] | MIC [9] | MIC [10] | MIC [11] | MIC [12] | MIC [13] | IC50 (CaCYP51 Y132F+K143R) | remaining activity at 4 µM (CaCYP51 Y132F+K143R) | IC50 (CaCYP51 Y132F+F145L) | remaining activity at 4 µM (CaCYP51 Y132F+F145L) | remaining activity at 4 µM (CaCYP51 Y447H) | IC50 (CaCYP51 Y447H) | remaining activity at 4 µM (CaCYP51 D278N+G464S) | other results
CC[C@@H]([C@H](C)O)n1ncn(-c2ccc(N3CCN(c4ccc(OC[C@@H]5CO[C@@](Cn6cncn6)(c6ccc(F)cc6F)C5)cc4)CC3)cc2)c1=O [Posaconazole, posaconazole] | ≤ 0.03 µg/mL | 0.06 µg/mL (≈ 0.0856 µM) | ≤ 0.03 µg/mL | ≤ 0.03 µg/mL | ≤ 0.03 µg/mL | ≤ 0.03 µg/mL | ≤ 0.03 µg/mL | ≤ 0.03 µg/mL | ≤ 0.03 µg/mL | ≤ 0.03 µg/mL | ≤ 0.03 µg/mL | ≤ 0.03 µg/mL | ≤ 0.03 µg/mL | 246 ± 24 nM | 0.86 ± 0.11% | 433 ± 102 nM | 2.64 ± 0.08% | 8.19 ± 3.58% | 439 ± 135 nM | 15 ± 1.16% | fold increase in MIC over SC5314 [2]: 2 fold; fold increase in IC50 over wild-type enzyme (CaCYP51 D278N+G464S): 4.8 fold; IC50 (CaCYP51 D278N+G464S): 930 ± 9 nM
CCC(C)n1ncn(-c2ccc(N3CCN(c4ccc(OCC5COC(Cn6cncn6)(c6ccc(Cl)cc6Cl)O5)cc4)CC3)cc2)c1=O (stereo not drawn) [Itraconazole, itraconazole] | 0.25 µg/mL (≈ 0.354 µM) | 0.25 µg/mL (≈ 0.354 µM) | 0.25 µg/mL (≈ 0.354 µM) | 0.25 µg/mL (≈ 0.354 µM) | 0.25 µg/mL (≈ 0.354 µM) | 0.5 µg/mL (≈ 0.709 µM) | 0.25 µg/mL (≈ 0.354 µM) | 0.125 µg/mL (≈ 0.177 µM) | 0.06 µg/mL (≈ 0.085 µM) | 0.25 µg/mL (≈ 0.354 µM) | 0.25 µg/mL (≈ 0.354 µM) | 0.25 µg/mL (≈ 0.354 µM) | 0.25 µg/mL (≈ 0.354 µM) | 190 ± 2 nM | 0.23 ± 0.13% | 364 ± 23 nM | 0.91 ± 0.05% | 1.45 ± 0.06% | 299 ± 39 nM | 3.19 ± 0.46% | IC50 (CaCYP51 D278N+G464S): 403 ± 11 nM
OC(Cn1cncn1)(Cn1cncn1)c1ccc(F)cc1F [Fluconazole, fluconazole] | 4 µg/mL (≈ 13.1 µM) | 8 µg/mL (≈ 26.1 µM) | 8 µg/mL (≈ 26.1 µM) | 8 µg/mL (≈ 26.1 µM) | 32 µg/mL (≈ 104 µM) | 16 µg/mL (≈ 52.2 µM) | 4 µg/mL (≈ 13.1 µM) | – | 1 µg/mL (≈ 3.27 µM) | 32 µg/mL (≈ 104 µM) | 8 µg/mL (≈ 26.1 µM) | 16 µg/mL (≈ 52.2 µM) | 2 µg/mL (≈ 6.53 µM) | 5860 ± 524 nM | 62 ± 1.21% | 3890 ± 77 nM | 49.1 ± 1.76% | 4.34 ± 0.51% | 483 ± 18 nM | 18.26 ± 0.08% | fold increase in MIC over SC5314 [1]: at least 2 fold; fold increase in MIC over SC5314 [3]: at least 2 fold; fold increase in IC50 over wild-type enzyme (CaCYP51 D278N+G464S): 3 fold and 3.2 fold; IC50 (CaCYP51 D278N+G464S): 1240 ± 64 nM
C[C@@H](c1ncncc1F)[C@](O)(Cn1cncn1)c1ccc(F)cc1F [Voriconazole, voriconazole] | 0.25 µg/mL (≈ 0.716 µM) | 0.25 µg/mL (≈ 0.716 µM) | 0.25 µg/mL (≈ 0.716 µM) | 0.25 µg/mL (≈ 0.716 µM) | 1 µg/mL (≈ 2.86 µM) | 0.5 µg/mL (≈ 1.43 µM) | 0.5 µg/mL (≈ 1.43 µM) | ≤ 0.03 µg/mL | ≤ 0.03 µg/mL | 1 µg/mL (≈ 2.86 µM) | 0.5 µg/mL (≈ 1.43 µM) | 0.5 µg/mL (≈ 1.43 µM) | 0.25 µg/mL (≈ 0.716 µM) | – | 8.86 ± 1.09% | – | 13.6 ± 0.19% | 2.07 ± 1.04% | – | 4.79 ± 0.11% | –
